# Reference: ChEMBL document CHEMBL1134282 (J Med Chem, 2001)
# How the values were obtained:
# Cholinesterase = Cholinesterase (Homo sapiens, UniProt P06276); assay: In vitro inhibition of human plasma butyrylcholinesterase.; type: cell-free
# Acetylcholinesterase = Acetylcholinesterase (Homo sapiens, UniProt P22303); assay: In vitro inhibition of human erythrocyte acetylcholinesterase.
# Acetylcholinesterase, sequence (P22303 whole entry): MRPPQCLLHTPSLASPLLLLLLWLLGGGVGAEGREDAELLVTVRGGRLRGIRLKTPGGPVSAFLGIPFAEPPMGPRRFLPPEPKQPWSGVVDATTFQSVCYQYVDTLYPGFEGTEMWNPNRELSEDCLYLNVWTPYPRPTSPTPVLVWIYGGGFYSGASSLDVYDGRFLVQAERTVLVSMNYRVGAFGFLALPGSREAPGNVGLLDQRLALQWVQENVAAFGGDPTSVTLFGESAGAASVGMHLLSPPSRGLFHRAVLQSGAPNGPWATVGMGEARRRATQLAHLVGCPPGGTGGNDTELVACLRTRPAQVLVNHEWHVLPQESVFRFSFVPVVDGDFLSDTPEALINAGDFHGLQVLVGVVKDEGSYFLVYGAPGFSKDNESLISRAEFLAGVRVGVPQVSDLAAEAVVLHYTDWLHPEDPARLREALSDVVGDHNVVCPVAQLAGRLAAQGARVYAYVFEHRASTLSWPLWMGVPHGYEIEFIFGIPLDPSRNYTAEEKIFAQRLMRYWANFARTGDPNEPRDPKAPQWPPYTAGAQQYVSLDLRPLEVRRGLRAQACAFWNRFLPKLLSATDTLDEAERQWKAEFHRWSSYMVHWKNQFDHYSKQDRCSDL
# Cholinesterase, sequence (P06276 whole entry): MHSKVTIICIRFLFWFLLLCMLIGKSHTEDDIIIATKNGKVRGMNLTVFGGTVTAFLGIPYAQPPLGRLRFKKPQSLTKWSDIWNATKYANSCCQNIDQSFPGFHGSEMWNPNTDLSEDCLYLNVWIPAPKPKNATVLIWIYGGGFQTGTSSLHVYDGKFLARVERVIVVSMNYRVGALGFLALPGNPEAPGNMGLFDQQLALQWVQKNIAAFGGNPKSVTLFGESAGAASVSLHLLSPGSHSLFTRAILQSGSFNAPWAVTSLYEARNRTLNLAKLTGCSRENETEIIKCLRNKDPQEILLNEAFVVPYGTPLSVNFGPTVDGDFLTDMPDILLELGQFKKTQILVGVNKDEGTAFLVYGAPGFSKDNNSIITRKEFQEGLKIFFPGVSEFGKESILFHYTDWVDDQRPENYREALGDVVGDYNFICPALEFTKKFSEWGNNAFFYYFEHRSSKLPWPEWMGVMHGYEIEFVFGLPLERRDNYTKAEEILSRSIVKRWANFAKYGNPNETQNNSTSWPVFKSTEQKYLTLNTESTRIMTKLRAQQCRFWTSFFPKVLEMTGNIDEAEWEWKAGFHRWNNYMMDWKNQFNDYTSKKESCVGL
SMILES,IC50 (Cholinesterase) [nM],IC50 (Acetylcholinesterase) [nM]
CC(C)c1ccccc1NC(=O)Oc1ccc2c(c1)[C@]1(C)CCN(C)[C@@H]1N2C,650,15
Cc1ccc(NC(=O)Oc2ccc3c(c2)[C@]2(C)CCN(C)[C@@H]2N3C)cc1C,66,31
Cc1cc(C)cc(NC(=O)Oc2ccc3c(c2)[C@]2(C)CCN(C)[C@@H]2N3C)c1,798,78
Cc1cccc(NC(=O)Oc2ccc3c(c2)[C@]2(C)CCN(C)[C@@H]2N3C)c1,165,28
CN(C(=O)Oc1ccc2c(c1)[C@]1(C)CCN(C)[C@@H]1N2C)c1ccccc1,> 10000,690
CN(C)Cc1cc2c(cc1OC(=O)Nc1ccccc1)[C@]1(C)CCN(C)[C@@H]1N2C,3890,2500
Cc1cc2c(cc1OC(=O)Nc1ccccc1)[C@]1(C)CCN(C)[C@@H]1N2C,5020,260
CNC(=O)Oc1cc2c(cc1C)N(C)[C@H]1N(C)CC[C@@]21C,8530,> 10000
CCc1cccc(CC)c1NC(=O)Oc1ccc2c(c1)[C@]1(C)CCN(C)[C@@H]1N2C,1100,–
Cc1ccc(NC(=O)Oc2ccc3c(c2)[C@]2(C)CCN(C)[C@@H]2N3C)c(C)c1,–,14
Cc1cccc(NC(=O)Oc2ccc3c(c2)[C@]2(C)CCN(C)[C@@H]2N3C)c1C,170,23
Cc1ccc(C)c(NC(=O)Oc2ccc3c(c2)[C@]2(C)CCN(C)[C@@H]2N3C)c1,490,26
Cc1cccc(C)c1NC(=O)Oc1ccc2c(c1)[C@]1(C)CCN(C)[C@@H]1N2C,290,785
CCc1ccccc1NC(=O)Oc1ccc2c(c1)[C@]1(C)CCN(C)[C@@H]1N2C [ETHYLPHENSERINE],–,10
CN1CC[C@@]2(C)c3cc(OC(=O)Nc4ccccc4)ccc3N(C)[C@@H]12 [PHENSERINE],1560,–
